Measurements reported in PubChem BioAssay AID192 (DTP/NCI, 2004).
Where “and” joins values, the source holds several entries; their conditions need not be identical. Equal values may be shown once. Toxic doses and inconclusive results are not listed. The calls were made as follows: active = survival T/C of 150% or more; inactive = T/C below 125% in these data.

System: BDF1 mice, B16 melanoma ip, median survival T/C
Experiment: NCI In Vivo Anticancer Drug Screen. Data for tumor model B16 Melanoma (intraperitoneal) in B6D2F1 (BDF1) mice
Conditions: endpoint: median survival time, higher = longer survival
Method in brief: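 Values are ratios of treated (T) to vehicle-control (C) measurements of survival or tumor size in tumor-bearing mice.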

[1] = dose: 12.5 mg/kg/injection, schedule: Q01DX009 (ip), vehicle: saline with Tween-80
[2] = dose: 25.0 mg/kg/injection, schedule: Q01DX009 (ip), vehicle: saline with Tween-80
[3] = dose: 50.0 mg/kg/injection, schedule: Q01DX009 (ip), vehicle: saline with Tween-80
[4] = dose: 100.0 mg/kg/injection, schedule: Q01DX009 (ip), vehicle: saline with Tween-80
[5] = dose: 200.0 mg/kg/injection, schedule: Q01DX009 (ip), vehicle: saline with Tween-80
[6] = dose: 400.0 mg/kg/injection, schedule: Q01DX009 (ip), vehicle: saline with Tween-80
[7] = dose: 25.0 mg/kg/injection, schedule: Q01DX009 (ip), vehicle: Klucel (hydroxypropylcellulose) (HPC)
[8] = dose: 50.0 mg/kg/injection, schedule: Q01DX009 (ip), vehicle: Klucel (hydroxypropylcellulose) (HPC)
[9] = dose: 200.0 mg/kg/injection, schedule: Q01DX009 (ip), vehicle: Klucel (hydroxypropylcellulose) (HPC)
[10] = dose: 400.0 mg/kg/injection, schedule: Q01DX009 (ip), vehicle: Klucel (hydroxypropylcellulose) (HPC)
[11] = dose: 25.0 mg/kg/injection, schedule: Q01DX009 (ip), vehicle: saline
[12] = dose: 50.0 mg/kg/injection, schedule: Q01DX009 (ip), vehicle: saline
[13] = dose: 100.0 mg/kg/injection, schedule: Q01DX009 (ip), vehicle: saline
[14] = dose: 100.0 mg/kg/injection, schedule: Q01DX009 (ip), vehicle: Klucel (hydroxypropylcellulose) (HPC)
[15] = dose: 12.5 mg/kg/injection, schedule: Q01DX009 (ip), vehicle: Klucel (hydroxypropylcellulose) (HPC)
[16] = dose: 6.25 mg/kg/injection, schedule: Q01DX009 (ip), vehicle: Klucel (hydroxypropylcellulose) (HPC)

Measured: T/C

Nc1ccc(N(CCCl)CCN(CCCl)c2ccc(N)cc2)cc1
inactive: dose: 0.36 mg/kg/injection, schedule: Q01DX009 (ip), vehicle: saline 108 % of control | dose: 0.75 mg/kg/injection, schedule: Q01DX009 (ip), vehicle: saline 113 % of control | dose: 1.5 mg/kg/injection, schedule: Q01DX009 (ip), vehicle: saline 113 % of control | dose: 3.0 mg/kg/injection, schedule: Q01DX009 (ip), vehicle: saline 119 % of control

Cc1nc2[nH]c(=O)[nH]c(=O)c2[nH]1
inactive: [1] 111 % of control | dose: 12.5 mg/kg/injection, schedule: Q04DX003 (ip), vehicle: saline with Tween-80 105 % of control | [2] 100 % of control | dose: 25.0 mg/kg/injection, schedule: Q04DX003 (ip), vehicle: saline with Tween-80 108 % of control | [3] 102 % of control | dose: 50.0 mg/kg/injection, schedule: Q04DX003 (ip), vehicle: saline with Tween-80 105 % of control

NC(Cc1ccc(Cl)cc1)C(=O)O (stereo not drawn)
inactive: [4] 123 % of control | [5] 115 % of control | [6] 104 % of control

O=C1N[C@H]2[C@H](CS[C@H]2CCCCC(=O)N(CCP(c2ccccc2)c2ccccc2)CCP(c2ccccc2)c2ccccc2)N1
inactive: [7] 112 % of control | [8] 120 % of control | [9] 123 % of control | [10] 108 % of control

CC(=O)NC1=C(N2CC2C)C(=O)C(NC(C)=O)=C(N2CC2C)C1=O (stereo not drawn)
inactive: dose: 0.62 mg/kg/injection, schedule: Q01DX009 (ip), vehicle: saline 89 % of control | dose: 1.25 mg/kg/injection, schedule: Q01DX009 (ip), vehicle: saline 105 % of control

CN1CCC(=C2c3ccccc3C=Cc3ccccc32)CC1
inactive: dose: 3.12 mg/kg/injection, schedule: Q01DX009 (ip), vehicle: saline 110 % of control | dose: 6.25 mg/kg/injection, schedule: Q01DX009 (ip), vehicle: saline 102 % of control | [11] 105 % of control | [12] 105 % of control

CC(=O)n1cc(F)c(=O)[nH]c1=O
inactive: dose: 5.3 mg/kg/injection, schedule: Q01DX009 (ip), vehicle: Klucel (hydroxypropylcellulose) (HPC) 91 % of control | dose: 8.0 mg/kg/injection, schedule: Q01DX009 (ip), vehicle: Klucel (hydroxypropylcellulose) (HPC) 91 % of control | dose: 12.0 mg/kg/injection, schedule: Q01DX009 (ip), vehicle: Klucel (hydroxypropylcellulose) (HPC) 104 % of control | dose: 18.0 mg/kg/injection, schedule: Q01DX009 (ip), vehicle: Klucel (hydroxypropylcellulose) (HPC) 120 % of control | dose: 27.0 mg/kg/injection, schedule: Q01DX009 (ip), vehicle: Klucel (hydroxypropylcellulose) (HPC) 114 % of control

CCCCCCCCCCCC[N+](C)(C)C (tested in a mixture with another compound)
inactive: dose: 3.5 mg/kg/injection, schedule: Q01DX009 (ip), vehicle: saline 98 % of control | dose: 7.0 mg/kg/injection, schedule: Q01DX009 (ip), vehicle: saline 86 % of control | dose: 14.0 mg/kg/injection, schedule: Q01DX009 (ip), vehicle: saline 90 % of control

COC(=O)[C@@]12OC[C@]34[C@H]([C@@H](O)[C@@H]1O)[C@@]1(C)C=C(OC5OC(CO)C(O)C(O)C5O)C(=O)C(C)[C@@H]1C[C@H]3OC(=O)[C@H](OC(=O)C=C(C)C)[C@@H]24 (stereo partly drawn)
inactive: dose: 0.25 mg/kg/injection, schedule: Q01DX009 (ip), vehicle: saline + alcohol 108 % of control | dose: 0.5 mg/kg/injection, schedule: Q01DX009 (ip), vehicle: saline + alcohol 108 % of control | dose: 1.0 mg/kg/injection, schedule: Q01DX009 (ip), vehicle: saline + alcohol 108 % of control | dose: 2.0 mg/kg/injection, schedule: Q01DX009 (ip), vehicle: saline + alcohol 105 % of control | dose: 4.0 mg/kg/injection, schedule: Q01DX009 (ip), vehicle: saline + alcohol 113 % of control | dose: 8.0 mg/kg/injection, schedule: Q01DX009 (ip), vehicle: saline + alcohol 103 % of control

CC1C2CCC(C2)C1C(=O)O (stereo not drawn)
inactive: dose: 100.0 mg/kg/injection, schedule: Q04DX003 (ip), vehicle: other 102 % of control | dose: 200.0 mg/kg/injection, schedule: Q04DX003 (ip), vehicle: other 102 % of control | dose: 400.0 mg/kg/injection, schedule: Q04DX003 (ip), vehicle: other 89 % of control

CCN(C(=O)Nc1cccc(Cl)c1)c1ccccc1C
inactive: [4] 100 % of control | [5] 100 % of control | [6] 94 % of control

CCCCNC(=O)Nc1c(C)cccc1C
inactive: dose: 100.0 mg/kg/injection, schedule: Q01DX009 (ip), vehicle: gum acacia 95 % of control | dose: 200.0 mg/kg/injection, schedule: Q01DX009 (ip), vehicle: gum acacia 94 % of control

C=CCOCC(O)CN(C)CC1CCCO1 (stereo not drawn)
inactive: [11] 103 % of control | [12] 102 % of control | [13] 91 % of control

C=COCCCCCC(C)C
inactive: [7] 97 % of control | [8] 102 % of control | [14] 86 % of control and 91 % of control

c1ccc(Cc2ccccc2)cc1
inactive: [4] 89 % of control

CCCCC(NC(=O)OC(C)(C)C)C(=O)O (stereo not drawn)
inactive: [14] 114 % of control | [9] 104 % of control | [10] 100 % of control

C[As](C)[Se]C1OC(CO)C(O)C(O)C1O (stereo not drawn)
inactive: [15] 112 % of control | [7] 106 % of control | [8] 104 % of control

[Cl][Pt+2][Cl].[NH-]CC(=O)O.[NH-]CC(=O)O
inactive: [2] 97 % of control | [3] 92 % of control

OC(CCN1CCCC1)(c1ccccc1)C1CCCCC1 (stereo not drawn)
inactive: [16] 101 % of control | [7] 98 % of control | [8] 93 % of control | [14] 87 % of control

C=C1C(=O)O[C@@H]2[C@H]3O[C@]3(C)CCC=C(C)CC[C@@H]12
inactive: [15] 92 % of control | [7] 87 % of control | [8] 92 % of control

CNc1ccc(C(=O)O)cc1I
inactive: [14] 105 % of control | dose: 100.0 mg/kg/injection, schedule: Q04DX003 (ip), vehicle: Klucel (hydroxypropylcellulose) (HPC) 100 % of control | [9] 120 % of control | dose: 200.0 mg/kg/injection, schedule: Q04DX003 (ip), vehicle: Klucel (hydroxypropylcellulose) (HPC) 104 % of control | [10] 91 % of control | dose: 400.0 mg/kg/injection, schedule: Q04DX003 (ip), vehicle: Klucel (hydroxypropylcellulose) (HPC) 100 % of control

Cc1ccc(S(=O)(=O)Oc2ccc(-c3ccc(OS(=O)(=O)c4ccc(C)cc4)cc3)cc2)cc1
inactive: [3] 105 % of control | [4] 90 % of control

Cn1ccc(=Nc2ccc(NC(=O)c3ccc(N=c4ccn(C)c5ccc([N+](=O)[O-])cc45)cc3[N+](=O)[O-])cc2)cc1
inactive: [1] 96 % of control | [2] 97 % of control | [3] 97 % of control | [4] 105 % of control | [5] 97 % of control | [6] 91 % of control

COC(=O)CC(N)C(=O)O (stereo not drawn)
inactive: dose: 12.5 mg/kg/injection, schedule: Q01DX009 (ip), vehicle: saline 101 % of control | [11] 103 % of control | [12] 113 % of control | [13] 104 % of control | dose: 200.0 mg/kg/injection, schedule: Q01DX009 (ip), vehicle: saline 89 % of control

S=P(Nc1ccccc1)(Nc1ccccc1)c1ccccc1
inactive: [14] 104 % of control | [9] 96 % of control | [10] 87 % of control

CCCOP(=S)(N1CC1)N1CC1
inactive: [2] 91 % of control | [3] 99 % of control | [4] 91 % of control | [5] 103 % of control

CCCCCCC(=O)/C=C/c1cccc(OCOCC)c1
inactive: [1] 99 % of control | [2] 94 % of control | [3] 102 % of control | [4] 98 % of control

CC(Cc1ccccc1)NC(=O)CCNNC(=O)c1ccncc1 (stereo not drawn)
inactive: dose: 0.39 mg/kg/injection, schedule: Q01DX009 (ip), vehicle: Klucel (hydroxypropylcellulose) (HPC) 95 % of control | dose: 0.78 mg/kg/injection, schedule: Q01DX009 (ip), vehicle: Klucel (hydroxypropylcellulose) (HPC) 87 % of control | dose: 1.56 mg/kg/injection, schedule: Q01DX009 (ip), vehicle: Klucel (hydroxypropylcellulose) (HPC) 90 % of control | dose: 3.12 mg/kg/injection, schedule: Q01DX009 (ip), vehicle: Klucel (hydroxypropylcellulose) (HPC) 95 % of control | [16] 89 % of control | [15] 91 % of control
